Data: article PMC4535329 (Bioorganic & medicinal chemistry letters, 2015)
In brackets after ≈: the same amount, converted by molar mass. Values belong to the compound of their own block, whether it stands above or below them.

Assays:
Ca channel = assay: Cardiovascular safety pharmacology: Ca channel; format: cell-based; conditions: read-out: Ca channel IC50
Na channel = assay: Cardiovascular safety pharmacology: Na channel; format: cell-based; conditions: read-out: Na channel IC50
Solubility = format: physicochemical
mGlu3 = mGlu3 (Homo sapiens, UniProt Q14832); assay: mGlu selectivity: mGlu3 antagonist activity; format: cell-based
Chain of mGlu3 (Q14832 23-879): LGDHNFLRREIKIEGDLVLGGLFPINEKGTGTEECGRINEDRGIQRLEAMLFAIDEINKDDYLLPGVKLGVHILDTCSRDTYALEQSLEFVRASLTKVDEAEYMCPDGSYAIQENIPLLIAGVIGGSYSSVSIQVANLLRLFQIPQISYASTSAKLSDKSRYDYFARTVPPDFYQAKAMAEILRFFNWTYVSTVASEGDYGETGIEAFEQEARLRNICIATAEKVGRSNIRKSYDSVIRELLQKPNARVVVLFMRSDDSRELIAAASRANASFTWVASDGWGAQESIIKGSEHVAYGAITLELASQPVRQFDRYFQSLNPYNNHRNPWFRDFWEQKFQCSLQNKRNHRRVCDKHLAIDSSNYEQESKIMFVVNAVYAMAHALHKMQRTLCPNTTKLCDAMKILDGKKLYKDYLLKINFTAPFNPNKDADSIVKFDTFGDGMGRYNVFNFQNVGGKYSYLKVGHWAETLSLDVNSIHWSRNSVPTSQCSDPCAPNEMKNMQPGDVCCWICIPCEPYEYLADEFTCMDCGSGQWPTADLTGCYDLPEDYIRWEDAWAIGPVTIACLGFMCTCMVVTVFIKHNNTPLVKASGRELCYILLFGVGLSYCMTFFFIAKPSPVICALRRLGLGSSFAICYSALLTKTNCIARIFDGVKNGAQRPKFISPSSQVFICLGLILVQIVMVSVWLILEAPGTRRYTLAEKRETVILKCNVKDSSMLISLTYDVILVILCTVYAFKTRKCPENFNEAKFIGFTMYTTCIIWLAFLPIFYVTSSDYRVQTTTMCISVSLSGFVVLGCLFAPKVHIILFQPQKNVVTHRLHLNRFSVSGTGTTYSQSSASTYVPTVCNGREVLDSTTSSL

mGlu1 = mGlu1 (Homo sapiens, UniProt Q13255); assay: mGlu selectivity; format: cell-based
mGlu2 = mGlu2 (Homo sapiens, UniProt Q14416); assay: mGlu selectivity; format: cell-based
mGlu4 = mGlu4 (Homo sapiens, UniProt Q14833); assay: mGlu selectivity; format: cell-based
Chain of mGlu4 (Q14833 33-912): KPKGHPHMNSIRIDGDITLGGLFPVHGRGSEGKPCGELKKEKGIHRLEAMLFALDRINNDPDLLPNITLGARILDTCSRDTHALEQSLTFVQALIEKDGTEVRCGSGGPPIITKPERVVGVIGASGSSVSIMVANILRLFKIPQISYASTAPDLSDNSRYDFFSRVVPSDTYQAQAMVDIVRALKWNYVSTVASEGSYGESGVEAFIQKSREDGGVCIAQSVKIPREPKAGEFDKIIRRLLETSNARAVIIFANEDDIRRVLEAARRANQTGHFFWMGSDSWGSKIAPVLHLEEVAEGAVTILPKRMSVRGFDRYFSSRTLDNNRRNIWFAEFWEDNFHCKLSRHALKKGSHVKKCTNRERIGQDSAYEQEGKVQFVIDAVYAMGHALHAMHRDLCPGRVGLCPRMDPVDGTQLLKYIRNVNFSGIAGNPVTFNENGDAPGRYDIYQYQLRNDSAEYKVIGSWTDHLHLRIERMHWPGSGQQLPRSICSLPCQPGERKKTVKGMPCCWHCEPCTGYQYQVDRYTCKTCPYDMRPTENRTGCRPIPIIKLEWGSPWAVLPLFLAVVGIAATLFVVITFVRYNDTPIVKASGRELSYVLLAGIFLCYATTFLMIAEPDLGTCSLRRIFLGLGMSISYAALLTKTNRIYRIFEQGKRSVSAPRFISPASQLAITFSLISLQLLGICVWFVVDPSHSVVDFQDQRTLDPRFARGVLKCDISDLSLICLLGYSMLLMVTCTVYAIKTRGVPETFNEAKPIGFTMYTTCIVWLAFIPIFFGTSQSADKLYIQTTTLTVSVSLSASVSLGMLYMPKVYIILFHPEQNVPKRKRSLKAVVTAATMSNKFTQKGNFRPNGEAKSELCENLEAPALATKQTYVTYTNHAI

mGlu6 = mGlu6 (Homo sapiens, UniProt O15303); assay: mGlu selectivity; format: cell-based
mGlu7 = mGlu7 (Homo sapiens, UniProt Q14831); assay: mGlu selectivity; format: cell-based
Chain of mGlu7 (Q14831 35-915): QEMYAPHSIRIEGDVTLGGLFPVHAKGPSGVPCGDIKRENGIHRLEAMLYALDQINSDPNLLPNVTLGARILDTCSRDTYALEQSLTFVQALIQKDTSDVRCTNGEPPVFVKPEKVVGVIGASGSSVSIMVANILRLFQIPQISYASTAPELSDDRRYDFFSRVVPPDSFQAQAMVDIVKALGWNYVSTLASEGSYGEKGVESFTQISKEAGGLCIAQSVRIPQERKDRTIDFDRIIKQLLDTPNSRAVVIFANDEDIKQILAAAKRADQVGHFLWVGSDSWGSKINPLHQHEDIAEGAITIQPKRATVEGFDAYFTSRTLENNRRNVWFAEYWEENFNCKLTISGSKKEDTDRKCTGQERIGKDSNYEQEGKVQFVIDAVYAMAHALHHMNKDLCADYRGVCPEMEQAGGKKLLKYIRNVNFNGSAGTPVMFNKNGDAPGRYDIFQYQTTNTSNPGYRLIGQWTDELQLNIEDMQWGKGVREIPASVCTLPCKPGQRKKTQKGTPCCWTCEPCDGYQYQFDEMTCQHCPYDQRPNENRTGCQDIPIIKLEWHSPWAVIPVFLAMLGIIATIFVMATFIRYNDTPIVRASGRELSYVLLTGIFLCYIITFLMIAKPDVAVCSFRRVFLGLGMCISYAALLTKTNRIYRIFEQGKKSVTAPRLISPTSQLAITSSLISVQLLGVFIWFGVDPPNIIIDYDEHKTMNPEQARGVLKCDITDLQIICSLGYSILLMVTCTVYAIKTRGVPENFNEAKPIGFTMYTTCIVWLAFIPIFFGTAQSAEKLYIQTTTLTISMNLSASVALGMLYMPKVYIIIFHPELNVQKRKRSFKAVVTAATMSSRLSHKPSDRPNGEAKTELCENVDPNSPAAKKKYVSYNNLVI

mGlu8 = mGlu8 (Homo sapiens, UniProt O00222); assay: mGlu selectivity; format: cell-based
Chain of mGlu8 (O00222 34-908): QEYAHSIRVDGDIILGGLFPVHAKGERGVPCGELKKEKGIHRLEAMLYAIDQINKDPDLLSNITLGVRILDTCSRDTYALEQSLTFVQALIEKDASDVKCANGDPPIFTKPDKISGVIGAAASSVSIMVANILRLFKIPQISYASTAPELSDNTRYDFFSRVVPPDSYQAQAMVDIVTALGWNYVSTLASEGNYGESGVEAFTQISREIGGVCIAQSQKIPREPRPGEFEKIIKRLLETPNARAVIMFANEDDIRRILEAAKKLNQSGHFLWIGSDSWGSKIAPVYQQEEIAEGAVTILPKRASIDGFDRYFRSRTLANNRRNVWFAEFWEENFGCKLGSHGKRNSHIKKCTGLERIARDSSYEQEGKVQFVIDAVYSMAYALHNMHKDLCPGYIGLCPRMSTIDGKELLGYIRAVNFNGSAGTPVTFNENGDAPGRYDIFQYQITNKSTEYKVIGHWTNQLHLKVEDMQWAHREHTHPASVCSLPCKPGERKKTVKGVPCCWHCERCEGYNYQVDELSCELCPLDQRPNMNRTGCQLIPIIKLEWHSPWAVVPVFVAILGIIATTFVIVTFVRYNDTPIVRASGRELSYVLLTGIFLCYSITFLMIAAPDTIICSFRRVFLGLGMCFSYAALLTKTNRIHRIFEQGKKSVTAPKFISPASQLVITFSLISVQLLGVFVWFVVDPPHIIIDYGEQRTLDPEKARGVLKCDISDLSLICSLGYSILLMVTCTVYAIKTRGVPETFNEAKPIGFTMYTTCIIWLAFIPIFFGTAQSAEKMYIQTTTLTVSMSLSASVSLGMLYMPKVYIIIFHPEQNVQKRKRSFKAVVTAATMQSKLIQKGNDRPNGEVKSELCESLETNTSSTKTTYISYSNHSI

[1] = system: amphetamine-induced hyperlocomotion (AHL); assay: Reversal of amphetamine-induced hyperlocomotion; format: in vivo, male, Sprague Dawley rats
human mGlu5 = human mGlu5 (Homo sapiens, UniProt P41594); assay: Calcium mobilization assay using HEK293 expressing human mGlu5; format: cell-based
Chain of human mGlu5 (P41594 21-1212): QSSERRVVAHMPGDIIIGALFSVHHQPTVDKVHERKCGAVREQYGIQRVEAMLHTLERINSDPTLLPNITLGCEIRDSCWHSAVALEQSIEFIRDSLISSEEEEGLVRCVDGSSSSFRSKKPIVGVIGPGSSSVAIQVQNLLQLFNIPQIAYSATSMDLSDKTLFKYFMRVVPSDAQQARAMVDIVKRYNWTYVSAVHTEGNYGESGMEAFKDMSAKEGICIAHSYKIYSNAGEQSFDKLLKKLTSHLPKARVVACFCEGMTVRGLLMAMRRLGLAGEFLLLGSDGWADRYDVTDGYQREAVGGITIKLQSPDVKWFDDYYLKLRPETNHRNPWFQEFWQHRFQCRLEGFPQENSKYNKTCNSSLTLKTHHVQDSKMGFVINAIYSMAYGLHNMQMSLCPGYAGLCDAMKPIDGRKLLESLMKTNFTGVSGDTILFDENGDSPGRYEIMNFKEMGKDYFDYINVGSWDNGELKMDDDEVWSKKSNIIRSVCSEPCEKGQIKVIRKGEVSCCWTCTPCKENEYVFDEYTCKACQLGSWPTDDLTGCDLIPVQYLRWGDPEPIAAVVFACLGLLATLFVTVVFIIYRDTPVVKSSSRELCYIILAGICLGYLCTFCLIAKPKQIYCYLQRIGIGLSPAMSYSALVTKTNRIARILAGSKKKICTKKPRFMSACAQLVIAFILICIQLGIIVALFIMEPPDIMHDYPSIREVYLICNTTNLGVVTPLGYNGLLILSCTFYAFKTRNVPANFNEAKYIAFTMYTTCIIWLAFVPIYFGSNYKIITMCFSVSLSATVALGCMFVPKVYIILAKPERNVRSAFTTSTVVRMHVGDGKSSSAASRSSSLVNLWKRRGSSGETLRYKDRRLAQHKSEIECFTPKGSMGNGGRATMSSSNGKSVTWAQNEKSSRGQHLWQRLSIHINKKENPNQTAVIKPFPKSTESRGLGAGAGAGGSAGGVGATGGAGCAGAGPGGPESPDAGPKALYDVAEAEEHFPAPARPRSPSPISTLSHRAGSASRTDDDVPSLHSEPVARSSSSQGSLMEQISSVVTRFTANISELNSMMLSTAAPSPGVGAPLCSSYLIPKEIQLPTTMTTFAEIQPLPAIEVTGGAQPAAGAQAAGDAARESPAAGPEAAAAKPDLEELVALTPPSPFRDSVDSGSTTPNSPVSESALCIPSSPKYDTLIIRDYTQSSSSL

mGlu5 = assay: Leftward fold-shift of a full glutamate concentration-response curve; format: cell-based; conditions: human and rat receptors, equal magnitude
[2] = Predicted hepatic clearance; format: in vitro ADME; conditions: human
[3] = Predicted hepatic clearance; format: in vitro ADME; conditions: rat

solubility (Solubility; FaSSIF): 10 µg/mL (≈ 27 µM)
solubility (Solubility; SGF): 10 µg/mL (≈ 27 µM)
solubility, fold lower than 1 (Solubility; relative to 1): 3 ×
IC50 (mGlu3): 0.41 µM
mGlu3 Glu min (mGlu3; % Glu min): 8%
activity versus mGlu1 (mGlu1): > 10 µM
activity versus mGlu2 (mGlu2): > 10 µM
activity versus mGlu4 (mGlu4): > 10 µM
activity versus mGlu6 (mGlu6): > 10 µM
activity versus mGlu7 (mGlu7): > 10 µM
activity versus mGlu8 (mGlu8): > 10 µM
Structure (SMILES): O=C(c1ccc(F)cc1)N1CCc2nc(COc3cccc(F)c3)oc2C1 [4b]
IC50 (Ca channel): > 10 µM
IC50 (Na channel): > 10 µM
minimum effective dose in AHL ([1]; rat, po): 30 mpk

mGlu5 PAM activity (in words) (human mGlu5): inactive
Structure (SMILES): O=C(c1cc2ccccc2[nH]1)N1CCc2nc(COc3ccccc3)oc2C1 [11a]

solubility (in words) (Solubility): poor solubility
Structure (SMILES): O=C(c1c[nH]c2ccccc12)N1CCc2nc(COc3ccccc3)oc2C1 [11c]

solubility (in words) (Solubility): poor solubility
Structure (SMILES): O=C(c1n[nH]c2ccccc12)N1CCc2nc(COc3ccccc3)oc2C1 [11e]

ago-PAM activity (human mGlu5): modest ago-PAM activity
ligand efficiency (human mGlu5): 0.31
predicted hepatic clearance CLhep [2]: 9.1 mL/min/kg
predicted hepatic clearance CLhep [3]: 36 mL/min/kg
Structure (SMILES): O=C(c1n[nH]c2ncccc12)N1CCc2nc(COc3ccccc3)oc2C1 [11h]
fold-shift (mGlu5): 7.3–9.3 x
MED in AHL, fold higher than for 1 ([1]; relative to 1): 3 fold
